These results are taken from patent US10828312B2, “Lithium cholesterol compositions, including, but not limited to lithium cholesterol sulfate compositions, and methods of treatment for Alzheimer's disease and neurological disorders” (priority 2018, dated 2020).

The conditions of data set [1]: rats; cited from earlier work.
The conditions of data set [2]: all liposomes tested; cited from earlier work.
Data set [3] relates to GSK3β (Ser9) phosphorylation. Description: Inhibitory GSK3β (Ser9) phosphorylation by Western blot in CHO cells. The settings on record: for maximal increase of pGSK3β: 18 h, vs no treatment; for concentration at which increase of pGSK3β starts: 18 h treatment, WB densitometry. It is filed as cell-based, Chinese Hamster. Here is the method:
(§1) Human neuroblastoma SH-SY5Y cells (ATCC, Manassas, Va.) were cultured in DMEM/Nutrient Mixture F-12 (DMEM/F-12), 10% fetal bovine serum (FBS) and 15 mM HEPES. Chinese Hamster Ovary cells (CHO, Millipore Sigma), human embryonic kidney 293 cells expressing wild-type tau (HEK293/tau cells, ATCC) and mouse BV2 microglial cells (Creative Bioarray, Shirley, N.Y.) were cultured in DMEM with 10% FBS. SH-SY5Y cells and CHO cells were cultured in 24-well plates at a density of 2.5×10^5 cells/well. HEK293/tau cells were cultured in 24-well plates at a density of 3.5×10^5 cells/well, after being treated with Tetracycline (1:1000) for about 24 h to create high and stable cells lines (24).
(§2) Cells were treated with LiCS or NaCS at 0, 5, 10, 20, 40, 60 or 90 μM or LiCl at 0, 0.06, 0.15, 0.3, 0.6, 1.2 and 2.5 mM for 18 hours, followed by washing with ice-cold PBS 3×, lysis with cell lysis buffer and centrifugation at 1.4×10^4 rpm for 20 minutes. The supernatants were then used for analysis of GSK3β (Ser) and tau (Thr^231) phosphorylation by Western Blot (WB) and WB bands were calculated by Image J software (Java 1.6.0_20, NIH, USA).

The subject of data set [4] is GSK3β (Ser9) phosphorylation. In words: Inhibitory GSK3β (Ser9) phosphorylation by Western blot in SH-SY5Y cells. The settings on record: for maximal increase of pGSK3β: 18 h; for concentration at which increase of pGSK3β starts: 18 h treatment, WB densitometry. It is filed as cell-based, Human. The procedure:
as §1, §2
(In general: Immunoblotting shows a protein as a band on a membrane.)

In data set [5] the test system is GSK3β (Ser9) phosphorylation. In words: Inhibitory GSK3β (Ser9) phosphorylation and total GSK3β by Western blot, statements covering both CHO and SH-SY5Y cells. It is filed as cell-based. The settings on record: for effect on total GSK3β levels: any dose; for concentration at which increase of pGSK3β starts / maximal increase of pGSK3β: both CHO and SH-SY5Y cells (summary). Here is the method:
as §1, §2

Data set [6] relates to tau (Thr231) phosphorylation. Description: Tau (Thr231) phosphorylation by Western blot in HEK293/tau cells. The settings on record: for effect on total tau levels: any dose. It is filed as cell-based, human. Here is the method: as §1, §2
The next data set has as its system LPS-induced TNFα. It counts as cell-based, mouse. The settings on record: for concentration at which decrease of LPS-induced TNFα starts: LPS 100 ng/ml, 3 h.
The nature of data set [7]: Lithium levels in blood plasma, brain, kidney and liver of mice after oral gavage (lithium ELISA). It counts as in vivo, C57BL/6J male mice. The procedure:
C57BL/6J male mice at 4 months of age were treated with LiCl or LiCS at 0.04 mmol lithium/mouse p.o by gavage, followed by determination of lithium levels in blood plasma, brain, kidney and liver at 0.5, 1, 2, 3, 5 and 24 h after gavage by ELISA (N=2 mice/time point).
At 0.5, 1, 2, 3, 5 and 24 h after treating mice with LiCl or LiCS p.o. by gavage, mice were anesthetized with isoflourane (50 mg/kg) (Sigma-Aldrich), euthanized by bilateral thoracotomy, and blood was collected. Brain, kidney, and liver were harvested, homogenized in 400 μL ddH2O with Minilys tissue homogenizer (Bertin Technologies, Montigny-le-Bretonneux, France), and centrifuged for 30 min. Lithium levels in plasma and supematants from brain, kidney, and liver homogenates were determined by ELISA (Biovision, Milpitas, Calif.) following the manufacturer's instructions. Plasma, brain, kidney and liver homogenates from control mice were used to generate standard curve.
(In an ELISA, binding on a coated surface is turned into a signal by an enzyme label.)

For data set [8] the following is noted: mice; cited from earlier work.
The conditions of data set [9]: rats; cited from earlier work. The source holds these as a separate data set.
The subject of another data set is AD pathology. Conditions: cited from earlier work.
The next data set relates to autistic features. The settings on record: 2 mmol/kg i.p./day, Sprague-Dawley rats; cited from earlier work.
[10] abbreviates: 0.04 mmol lithium/mouse p.o., 0.5 and 5 h after gavage.
Setting [11] is: NaCS at any dose between 5 and 90 μM, sulfate.
Setting [12] is: long term oral administration, Tg2576 and 3XTg AD mice.

“Also recorded” adds a separate entry of the source. Structures can show the parent of a compound that is named as a salt. Where two headings read alike, the source gives them in different places.

As to `O=C([O-])c1ccccc1O.[Li+]` [lithium salicylate], in [1], the “plasma lithium levels and elimination compared with lithium lactate” value is given as “longer elevated plasma lithium levels with a slower elimination process”.
Take `CC(C)CCC[C@@H](C)[C@H]1CC[C@H]2[C@@H]3CC=C4C[C@@H](OS(=O)(=O)O)CC[C@]4(C)[C@H]3CC[C@]12C` [cholesterol sulfate]: the “rate of intermembrane exchange relative to cholesterol” value in [2] is given as “approximately 10 fold”.
With `CC(C)CCC[C@@H](C)[C@H]1CC[C@H]2[C@@H]3CC=C4C[C@@H](OS(=O)(=O)[O-])CC[C@]4(C)[C@H]3CC[C@]12C.[Li+]` [LiCS, lithium cholesterol sulfate], the “maximal increase of pGSK3β” value in [3] (LiCS at 60 μM) is 92%; in [4] (LiCS at 90 μM) it was 90%; in [5] (LiCS at 60 μM) it was “approximately 100%”. The “concentration at which increase of pGSK3β starts” value in data set [3], in data set [4] and in [5] was 10 μM in each case. In addition, the “extent of pGSK3β increase at 60 μM” value in data set [5] is “maximally”. For the same compound, in data set [5] (CHO and SH-SY5Y cells), the “concentration levels at which pGSK3β increased” value is reported as “low micromolar levels”. In addition, in [5] (CHO and SH-SY5Y cells), the “potency relative to LiCl in increasing inhibitory GSK3β (Ser9) phosphorylation” value is 21-28 fold. Further, in [5] (18 h, CHO and SH-SY5Y cells, sulfate), the “effect on total GSK3β levels” value is given as “without altering; also recorded: neither LiCS, LiCl nor NaCS altered”. For the same compound, the “potency compared with LiCl in increasing inhibitory GSK3β (Ser9) phosphorylation” value in data set [5] (both CHO and SH-SY5Y cells) was “more potent than LiCl”. Besides, the “concentration levels at which tau (Thr231) phosphorylation is reduced” value in data set [6] (HEK293/tau cells) is recorded as “at micromolar levels”. Further, the “concentration at which decrease of ptau (Thr231) starts” value in [6] (HEK293/tau cells, 18 h) stood at 10 µM. In addition, in data set [6] (HEK293/tau cells, 18 h, LiCS at 40 μM), the “maximal decrease of ptau (Thr231)” value was 63%. In addition, the “effect on total tau levels” value in data set [6] (18 h, listed as UCS, sulfate) is given as “without altering”; in [6] (18 h, sulfate), “neither LiCS, NaCS nor LiCl at any dose altered”. Further, the “effectiveness compared with LiCl in reducing microglial LPS-induced TNFα production” value in the data set on LPS-induced TNFα (BV2 cells) is on record as “more effective than LiCl”. In addition, the “potency relative to LiCl for reducing LPS-induced TNFα production” value in the data set on LPS-induced TNFα (BV2 cells) is “approximately 250 fold”. In the data set with LPS-induced TNFα (BV2 cells), the “concentration at which decrease of LPS-induced TNFα starts” value was 20 µM. Moreover, the “lithium levels in the liver” value in data set [7] (setting [10]) is reported as “failed to increase at any time”. Further, the “lithium levels in the kidney” value in data set [7] (0.04 mmol lithium/mouse p.o., 0.5 and 5 h after gavage, listed as UCS, sulfate) is “LiCl but not UCS treatment markedly increases”; in [7] (0.04 mmol lithium/mouse p.o., 0.5 and 5 h after gavage, sulfate), “failed to increase at any time”. Besides, the “lithium blood levels compared with LiCl oral treatment” value in [7] (oral treatment, mice) was “more stable and last longer”. In addition, the “crossing of the blood-brain barrier” value in data set [7] (oral treatment, mice, compared with LiCl) is recorded as “more readily crosses the blood-brain barrier”.
As to `CC(C)CCC[C@@H](C)[C@H]1CC[C@H]2[C@@H]3CC=C4C[C@@H](OS(=O)(=O)[O-])CC[C@]4(C)[C@H]3CC[C@]12C.[Na+]` [NaCS, sodium cholesterol sulfate], the “effect on pGSK3β” value in [5] (NaCS at 5-90 μM, 18 h, CHO and SH-SY5Y cells, sulfate) was “did not alter; also recorded: failed to alter”. For the same compound, in [5] (18 h, CHO and SH-SY5Y cells), the “effect on total GSK3β levels” value is on record as “neither LiCS, LiCl nor NaCS altered”. For the same compound, the “effect on ptau (Thr231)” value in [6] (NaCS at any dose between 5 and 60 μM, 18 h, sulfate) is “neither LiCl at any dose between 60 μM and 1.25 mM nor NaCS at any dose between 5 and 60 μM altered ptau”; in [6] (setting [11]), “did not alter; also recorded: failed to alter”. For the same compound, in data set [6] (18 h, sulfate), the “effect on total tau levels” value is listed as “neither LiCS, NaCS nor LiCl at any dose altered”. Also, the “effect on LPS-induced TNFα level” value in the data set with LPS-induced TNFα (NaCS at any concentration between 20 and 80 μM) is “not altered”; in the data set on LPS-induced TNFα (setting [11]), “did not alter; also recorded: failed to alter”.
As to `O=C(O)[C@@H]1CCCN1.O=C([O-])c1ccccc1O.[Li+]` [LISPRO], in data set [8], the “brain lithium levels compared with lithium carbonate or lithium salicylate” value is given as “significantly higher brain lithium levels” and the “plasma lithium levels compared with lithium carbonate or lithium salicylate” value is “more steady plasma lithium levels”. In addition, in data set [9], the “brain lithium levels compared with lithium carbonate or lithium salicylate” value is on record as “significantly higher brain lithium levels” and the “plasma lithium levels compared with lithium carbonate or lithium salicylate” value is listed as “more steady plasma lithium levels”. Further, in the data set with AD pathology (AD mouse models), the AD-related behavioral impairment result is “reduced AD-related behavioral impairment”. In addition, in the data set on AD pathology (setting [12]), the “AD pathology (β-amyloid plaques, tau hyperphosphorylation, neuroinflammation, neuronal and synaptic protein loss, GSK3β activity)” value is listed as “reduced AD pathology”; the renal inflammation result was “without eliciting renal inflammation”.
As to `[Cl-].[Li+]` [LiCl, lithium chloride], the figures for the “maximal increase of pGSK3β” value in data set [3] (LiCl at 1.25 mM), in [4] (LiCl at 2.5 mM) and in [5] (LiCl at 1.25 mM) were 91%, 119% and “approximately 100%”, respectively. The “concentration at which increase of pGSK3β starts” value in data set [3] came to 160 μM; in data set [4], 60 μM; in data set [5], 60 μM. In addition, the “extent of pGSK3β increase at 60 μM” value in data set [5] is “minimally”. For the same compound, the “concentration levels at which pGSK3β increased” value in data set [5] (CHO and SH-SY5Y cells) was “high micromolar and low millimoloar levels”. Also, the “effect on total GSK3β levels” value in data set [5] (18 h, CHO and SH-SY5Y cells) was “without altering; also recorded: neither LiCS, LiCl nor NaCS altered”. Also, in data set [6] (LiCl at any dose between 60 μM and 1.25 mM, 18 h), the “effect on ptau (Thr231)” value is “not altered; also recorded: neither LiCl at any dose between 60 μM and 1.25 mM nor NaCS at any dose between 5 and 60 μM altered ptau; also recorded: ineffective even at millimolar levels; also recorded: failed to alter”. The “effect on total tau levels” value in data set [6] (18 h) was “neither LiCS, NaCS nor LiCl at any dose altered”. In the data set on LPS-induced TNFα (BV2 cells), the “concentration at which decrease of LPS-induced TNFα starts” value is 5000 µM. The “lithium levels in the brain” value in data set [7] (setting [10]) was “increased at 5 h”. The “lithium levels in the kidney” value in data set [7] (setting [10]) was “increased at 0.5 and 5 h; also recorded: markedly increases”. In addition, the “lithium levels in the liver” value in data set [7] (setting [10]) was “failed to increase at any time”. The “autistic features (social interaction deficit, repetitive self-grooming, anxiety, depression)” value in the data set on autistic features is “reversed autistic features”.
